# From the supplement of paper PMC4862054
# Where “and” joins values, the source holds several entries; their conditions need not be identical. Equal values may be shown once.
# Legend:
# Test in all cases: normalised viability (% of control), CellTiter-Blue; higher = more viable cells (about 100 = DMSO control)
# Conditions in all cases: incubation time: 72 h
# [1] = test system: MDA-MB-453
# Procedure: (§1)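 DSRT, CellTiter-Blue viability, 72 h incubation. Signal is normalised to DMSO and benzethonium chloride controls. Value is the normalised response at dose 6.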
# [2] = test system: CAL-51
# Procedure: as §1
# [3] = test system: HDQ-P1
# Procedure: as §1
# [4] = test system: CAL-148
# Procedure: as §1
# [5] = test system: CAL-85-1
# Procedure: as §1
# [6] = test system: DU-4475
# Procedure: as §1
SMILES,normalised viability [1],normalised viability [2],normalised viability [3],normalised viability [4],normalised viability [5],normalised viability [6]
CCCCCOC(=O)Nc1nc(=O)n([C@@H]2O[C@H](C)[C@@H](O)[C@H]2O)cc1F [Capecitabine] (300 nM),108% and 94.3%,103% and 96.5%,62.7% and 83.6%,98% and 94.3%,92.1% and 98.6%,–
Cc1c(C(=O)Nc2ccc(N3C[C@@H](C)O[C@@H](C)C3)nc2)cccc1-c1ccc(OC(F)(F)F)cc1 [NVP-LDE225] (300 nM),88.1%,105%,36.5%,95.2%,108%,101%
CN1CCN(c2nc(C3=C(c4c[nH]c5ccccc45)C(=O)NC3=O)c3ccccc3n2)CC1 [Sotrastaurin] (300 nM),96.2%,87%,56.9%,120%,117%,99.9%
C[C@@H](CN1CC(=O)NC(=O)C1)N1CC(=O)NC(=O)C1 [Dexrazoxane] (300 nM),97.6%,95%,82.2%,83.5%,95.4%,108%
COc1cc2c(N3CCN(C(=O)Nc4ccc(OC(C)C)cc4)CC3)ncnc2cc1OCCCN1CCCCC1 [Tandutinib] (30 nM),108%,106%,70.4%,103%,110%,96.3%
C[C@]12C=CC(=O)C=C1CC[C@@H]1[C@@H]2C(=O)C[C@@]2(C)[C@H]1CC[C@]2(O)C(=O)CO [Prednisone] (300 nM),91.8%,104%,50.2%,102%,102%,108%
CC/C(=C(\c1ccccc1)c1ccc(OCCN(C)C)cc1)c1ccccc1 [Tamoxifen] (300 nM),97.8%,89.5%,93.8%,112%,106%,113%
CO[C@H](C(=O)[C@@H](O)[C@@H](C)O)[C@@H]1Cc2cc3cc(O[C@H]4C[C@@H](O[C@@H]5C[C@@H](O)[C@H](O)[C@@H](C)O5)[C@H](O)[C@@H](C)O4)c(C)c(O)c3c(O)c2C(=O)[C@H]1O[C@H]1C[C@@H](O[C@@H]2C[C@@H](O)[C@@H](O[C@@H]3C[C@](C)(O)[C@H](O)[C@@H](C)O3)[C@@H](C)O2)[C@H](O)[C@@H](C)O1 [Plicamycin] (300 nM),17.4% and 13.2%,18.3% and 13.9%,32.7% and 20.9%,2.94% and 7.64%,13% and 11.5%,0.65% and -0.39%
CCN(CC)CCOc1ccc(C(=C(Cl)c2ccccc2)c2ccccc2)cc1 [Clomifene] (300 nM),93.9%,91.6%,105%,99.2%,102%,90.6%
N[C@@H](Cc1ccc(N(CCCl)CCCl)cc1)C(=O)O [Melphalan] (29.7 nM),110%,104%,81.1%,98.7%,88.3%,102%
O=C(O)CC[C@H]1CC[C@@](c2cc(F)ccc2F)(S(=O)(=O)c2ccc(Cl)cc2)CC1 [MK-0752] (30 nM),103%,106%,93%,115%,100%,117%
